Assay results as given in patent publication US20230201360A1, “Composition and Kit for colonization in gut of external probiotics through bioorthogonal click chemistry” (RESEARCH & BUSINESS FOUNDATION SUNGKYUNKWAN UNIVERSITY, priority 2021, published 2023).

Assays:
HT29-MTX-e12 cells [1] = assay: Azide group expression in goblet cell-like cells, DBCO-Cy5.5 fluorescence imaging; assay type: cell-based; settings: 100 μM, 24 hours; DBCO-Cy5.5 labeling
From the text: (§1) In order to evaluate the introduction of an azide group (—N3) (i.e., a functional group for bioorthogonal click chemistry) to the intestinal mucosa, HT29-MTX-e12 cells, which are goblet cell-like cells in vitro, were used. An azide group was introduced to the cell surface through glycan manipulation using tetraacetylated N-azidoacetyl-D-mannosamine (ManNAz) and tetraacetylated N-azidoacetyl-D-galactosamine (GalNAz), which are derivatives of mannosamine and galactosamine, which is a molecule used for mucosal formation. Specifically, HT29-MTX-e12 cells were cultured for 24 hours in DMEM medium containing 100 μM ManNAz or GalNAz. The azide group introduced was subjected to fluorescent labeling by culturing for 30 minutes in a medium containing 10 μM DBCO-Cy5.5, washed twice with physiological saline at 4° C., reacted with 20 μM Hoechst 33342 for 15 minutes, and then the cell nuclei were stained and observed.
In the case of introduction of an azide group into the intestinal mucosa, after introduction of an azide group into the HT29-MTX-e12 goblet cell-like cell line by the method of Example 2, the binding ability with DBCO-Cy5.5 was evaluated.

HT29-MTX-e12 cells [2] = assay: Western blot analysis of azide group introduced into goblet cell-like cells; assay type: cell-based; settings: various concentrations, 24 hours
Experimental: For quantitative evaluation of an azide group according to the precursor treatment concentration, HT29-MTX-e12 cells in 10 mL medium without sugar or containing various concentrations of GalNAz or ManNAz were inoculated onto 60 mm×15 mm polystyrene tissue culture plates at a density of 2×10^6 cells per plate, and cultured for 24 hours. The cells were obtained after washing with PBS (pH 7.4), lysed in a cell lysis solution (50 mM Tris, pH 7.2, 150 mM NaCl, 1% Triton X-100, 200 ng/mL phenylmethylsulfonyl fluoride) containing phosphatase inhibitor cocktail (St. Louis, Mo., USA), and 10 μL of phosphine-PEG-biotin (Waltham, Mass., Thermofisher Scientific) per 100 μL of the lysate was reacted at room temperature for 12 hours. Then, after subjecting the resultant to electrophoresis on 10% SDS polyacrylamide gel to be transferred to Immobilon P membrane (Millipore Corporation, Billerica, Mass., USA), treated with 1,000:1 diluted HRP-streptavidin (Waltham, Mass., Thermofisher Scientific) at room temperature for 2 hours, and confirmed by developing on Pierce™ECL Western blotting substrate (Waltham, Mass., Thermofisher Scientific).

HT29-MTX-e12 cells [3] = assay: Binding of DBCO-Bac. to azide-introduced goblet cell-like cells (fluorescence images, flow cytometry); assay type: cell-based; settings: for binding ability to DBCO-Bac. increase compared to the control group: cells treated with 100 μM precursor; for green fluorescence (distribution of DBCO-Bac. in the culture dish) compared to the control group: low-magnification fluorescence imaging
From the text: as §1
When DBCO-Bac. is treated on goblet cell-like cells into which an azide group has been introduced in Experimental Example 3, red fluorescence representing an azide group and green fluorescence representing DBCO-Bac. appear clearly as shown in FIG. 5A.

HT29-MTX-e12 cells [4] = assay: Binding of DBCO-Bac. in 3-dimensional intestinal mucosal simulation model; assay type: cell-based; settings: 100 μM precursor; 3D fluorescence image
Experimental: To evaluate the binding ability of DBCO-Bac. to the mucosa in a three-dimensional environment, mucosal formation of HT29-MTX-e12 cells was promoted through N-[N-(3,5-difluorophenacetyl)-L-alanyl]-S-phenylglycine t-butyl ester (DAPT) stimulation, and a 3D intestinal mucosal simulation model was prepared using the same. HT29-MTX-e12 cells were inoculated in DMEM medium and cultured for 24 hours, treated with 20 μM DAPT 4 times at intervals of once every 2 days, and from the second DAPT treatment, treated with the culture medium containing 100 μM GalNAz or ManNAz three times at intervals of once every two days. Then, the resultant was treated with DBCO-Bac. at a concentration of 5×10^8/mL.
Additionally, in order to evaluate the binding ability of DBCO-Bac. to the intestinal mucosa in a three-dimensional environment, a three-dimensional intestinal mucosal simulation model was prepared using HT29-MTX-e12 cells in which mucosal formation was promoted through DAPT stimulation by the method of Example 4 above.

mouse intestinal mucosa [5] = assay: Azide group expression in mouse intestinal mucosa after oral administration (DBCO-Cy5.5 staining); assay type: in vivo, mice; settings: 5 mg per animal, duodenum, jejunum, ileum, colon
Experimental: To confirm the expression level and expression time of an azide group in the intestinal mucosa, GalNAz or ManNAz was orally administered to mice, and the expression level of an azide group in the intestinal mucosa was evaluated through the binding ability with DBCO-Cy5.5. 5 mg of GalNAz or ManNAz was orally administered per animal, the intestinal tissue was divided into 4 parts (duodenum, jejunum, ileum, and colon) of the small intestine and extracted after 12 hours, 24 hours, 36 hours, and 48 hours at intervals of 12 hours, and dipped in 20 μM of each DBCO-Cy5.5 solution and stained.
In the case of introducing an azide group into the mouse intestinal mucosa, after oral administration of GalNAz or ManNAz to mice by the method of Example 5 above, the expression level of an azide group in the intestinal mucosa was evaluated through the binding ability with DBCO-Cy5.5.

mouse intestinal mucosa [6] = assay: Bac. remaining in mouse intestinal mucosa after simultaneous treatment with two DBCO-modified bacterial groups; assay type: in vivo, mice; settings: oral precursor, simultaneous treatment with both DBCO-modified bacteria
Experimental: In addition, in order to evaluate the intestinal mucosal binding ability of DBCO-Bac., GalNAz or ManNAz per animal was orally administered to 5 mg mice, and 24 hours thereafter, DBCO-Bac. was administered at a concentration of 10^9/mL.
In order to confirm whether bioorthogonal click chemistry of DBCO and an azide group is applicable when several groups of bacteria were administered at once as in probiotics, GalNAz and ManNAz were each orally administered to mice by the method of Example 5, and simultaneously treated with Bifidobacterium longum modified with DBCO and Lactobacillus acidophilus modified with DBCO, and the fluorescence value of Bac. remaining in the intestinal mucosa was confirmed.

Molecule: CC(=O)OCC1OC(OC(C)=O)C(NC(=O)CN=[N+]=[N-])[C@@H](OC(C)=O)[C@H]1OC(C)=O (stereo partly drawn) [GalNAz, tetraacetylated N-azidoacetyl-D-galactosamine]
- red fluorescence (azide group) in HT29-MTX-e12 cells (HT29-MTX-e12 cells [1]): red fluorescence appeared
- generation of an azide group (HT29-MTX-e12 cells [2]): increased depending on the concentration
- binding ability to DBCO-Bac. increase compared to the control group (HT29-MTX-e12 cells [3]): about 400 times
- green fluorescence (distribution of DBCO-Bac. in the culture dish) compared to the control group (HT29-MTX-e12 cells [3]): increased
- green fluorescence (binding ability to DBCO-Bac.) compared to the control group (HT29-MTX-e12 cells [4]): increased significantly
- time after oral administration at which fluorescence intensity (azide expression) was strongest (mouse intestinal mucosa [5]): about 24 hours
- amounts of DBCO-modified Bifidobacterium longum and Lactobacillus acidophilus remaining in the intestinal mucosa compared to the control group (mouse intestinal mucosa [6]): higher

Molecule: tetraacetylated N-azidoacetyl-D-mannosamine [ManNAz]
- red fluorescence (azide group) in HT29-MTX-e12 cells (HT29-MTX-e12 cells [1]): red fluorescence appeared
- generation of an azide group (HT29-MTX-e12 cells [2]): increased depending on the concentration
- binding ability to DBCO-Bac. increase compared to the control group (HT29-MTX-e12 cells [3]): about 500 times
- green fluorescence (distribution of DBCO-Bac. in the culture dish) compared to the control group (HT29-MTX-e12 cells [3]): increased
- green fluorescence (binding ability to DBCO-Bac.) compared to the control group (HT29-MTX-e12 cells [4]): increased significantly
- time after oral administration at which fluorescence intensity (azide expression) was strongest (mouse intestinal mucosa [5]): about 24 hours
- amounts of DBCO-modified Bifidobacterium longum and Lactobacillus acidophilus remaining in the intestinal mucosa compared to the control group (mouse intestinal mucosa [6]): significantly higher
